Experimental findings from the NIST ThermoML archive (doi:10.1021/je0301794) are described below.

Structures are written as SMILES. “And” between values parts separate entries of the source, which are not always exact repeats. Equal values may be shown once. ± gives the expanded uncertainty stated by the source.

A short description of data set [1]: excess molar enthalpy (molar enthalpy of mixing); xn = mol fraction of the nth substance listed. The settings on record: 318.15 K, 101.3 kPa, Liquid.
A short description of data set [2]: xn = mol fraction of the nth substance listed. The note with it: 101.3 kPa, Liquid.
The conditions of data set [3]: Liquid; for mass density: 101.3 kPa; for Normal boiling temperature: Closed cell (Static) method.

By mass density is commonly meant the mass of a sample divided by its volume. As for `COC(=O)OC` [dimethyl carbonate] + CCCCCCCCCC, the excess molar enthalpy in data set [1] (x1 = 1) was 0 ± 0.000478 kcal/mol. For the same compound, the mass density is 1063.5 ± 0.6 kg/m3 in data set [2] (298.15 K, x1 = 1); 1056.6 ± 0.6 kg/m3 in data set [2] (303.15 K, x1 = 1); 1043.4 ± 0.5 kg/m3 in data set [2] (313.15 K, x1 = 1); 1036.9 ± 0.5 kg/m3 in data set [2] (318.15 K, x1 = 1).
Consider `CCCCCC` [hexane], for which the mass density in data set [3] (293.15 K) was found to be 659.3 ± 0.5 kg/m3; in data set [3] (298.15 K), 654.8 ± 0.5 kg/m3; in data set [3] (303.15 K), 650.4 ± 0.5 kg/m3; in data set [3] (313.15 K) it was 641.1 ± 0.6 kg/m3; in data set [3] (318.15 K) it was 636.4 ± 0.6 kg/m3. In data set [3], the Normal boiling temperature was 68.78 ± 0.2 °C.
Consider `CCCCCCCC` [octane], for which the mass density in data set [3] (293.15 K) worked out at 702.5 ± 0.5 kg/m3; in data set [3] (298.15 K), 698.5 ± 0.5 kg/m3; in data set [3] (303.15 K) it was 694.5 ± 0.5 kg/m3; in data set [3] (313.15 K), 686.3 ± 0.5 kg/m3; in data set [3] (318.15 K), 682.1 ± 0.5 kg/m3. For the same compound, the Normal boiling temperature in data set [3] amounted to 125.50 ± 0.2 °C.
Turning to `CCCCCCCC` [octane] + COC(=O)OC, the excess molar enthalpy in data set [1] (x2 = 0) came to 0 ± 0.000478 kcal/mol. For the same compound, the mass density in data set [2] (293.15 K, x2 = 0) was determined as 702.5 ± 0.5 kg/m3; in data set [2] (298.15 K, x2 = 0), 698.5 ± 0.5 kg/m3; in data set [2] (303.15 K, x2 = 0) it was 694.5 ± 0.5 kg/m3; in data set [2] (313.15 K, x2 = 0), 686.3 ± 0.5 kg/m3; in data set [2] (318.15 K, x2 = 0), 682.1 ± 0.5 kg/m3.
On to `COC(=O)OC` [dimethyl carbonate] + CCCCCCCCC, for which, in data set [1] (x1 = 1), the excess molar enthalpy turned out to be 0 ± 0.000478 kcal/mol. Also, the mass density in data set [2] (293.15 K, x1 = 1) is on record as 1070 ± 0.6 kg/m3; in data set [2] (298.15 K, x1 = 1), 1063.5 ± 0.6 kg/m3; in data set [2] (303.15 K, x1 = 1) it was 1056.6 ± 0.6 kg/m3; in data set [2] (313.15 K, x1 = 1), 1043.4 ± 0.5 kg/m3; in data set [2] (318.15 K, x1 = 1), 1036.9 ± 0.5 kg/m3.
For the compound `CCCCCCCCC` [nonane], the mass density in data set [3] (293.15 K) worked out at 717.7 ± 0.5 kg/m3; in data set [3] (298.15 K), 713.9 ± 0.5 kg/m3; in data set [3] (303.15 K), 710.1 ± 0.5 kg/m3; in data set [3] (313.15 K), 702.2 ± 0.5 kg/m3; in data set [3] (318.15 K), 698.1 ± 0.5 kg/m3. Further, the Normal boiling temperature in data set [3] came to 150.51 ± 0.2 °C.
As for `CCCCCCC` [heptane] + COC(=O)OC, the excess molar enthalpy in data set [1] (x2 = 0) was 0 ± 0.000478 kcal/mol. Moreover, the mass density in data set [2] (293.15 K, x2 = 0) is given as 683.6 ± 0.5 kg/m3; in data set [2] (298.15 K, x2 = 0) it was 679.4 ± 0.5 kg/m3; in data set [2] (303.15 K, x2 = 0), 675.3 ± 0.5 kg/m3; in data set [2] (313.15 K, x2 = 0) it was 666.6 ± 0.5 kg/m3; in data set [2] (318.15 K, x2 = 0), 661.5 ± 0.5 kg/m3.
As for `COC(=O)OC` [dimethyl carbonate], the mass density in data set [3] (293.15 K) is 1070 ± 0.6 kg/m3; in data set [3] (298.15 K), 1063.5 ± 0.6 kg/m3; in data set [3] (303.15 K), 1056.5 ± 0.6 kg/m3 and 1056.6 ± 0.6 kg/m3; in data set [3] (313.15 K), 1043.4 ± 0.5 kg/m3; in data set [3] (318.15 K), 1036.9 ± 0.5 kg/m3. Besides, in data set [3], the Normal boiling temperature turned out to be 90.31 ± 0.2 °C.
`CCCCCCCCCC` [decane]: the mass density in data set [3] (298.15 K) came out at 726.2 ± 0.5 kg/m3; in data set [3] (303.15 K), 722.3 ± 0.5 kg/m3; in data set [3] (313.15 K) it was 714.7 ± 0.5 kg/m3; in data set [3] (318.15 K), 710.9 ± 0.5 kg/m3. Also, in data set [3], the Normal boiling temperature came out at 173.8 ± 0.2 °C.
In the case of `CCCCCCC` [heptane], the mass density in data set [3] (293.15 K) amounted to 683.6 ± 0.5 kg/m3; in data set [3] (298.15 K), 679.4 ± 0.5 kg/m3; in data set [3] (303.15 K), 675.3 ± 0.5 kg/m3; in data set [3] (313.15 K) it was 666.6 ± 0.5 kg/m3; in data set [3] (318.15 K), 661.5 ± 0.5 kg/m3. In addition, the Normal boiling temperature in data set [3] was 98.03 ± 0.2 °C.
For `CCCCCC` [hexane] + COC(=O)OC, in data set [1] (x2 = 0), the excess molar enthalpy is 0 ± 0.000478 kcal/mol. Further, the mass density came to 659.3 ± 0.5 kg/m3 in data set [2] (293.15 K, x2 = 0); 654.8 ± 0.5 kg/m3 in data set [2] (298.15 K, x2 = 0); 650.4 ± 0.5 kg/m3 in data set [2] (303.15 K, x2 = 0); 641.1 ± 0.6 kg/m3 in data set [2] (313.15 K, x2 = 0); 636.4 ± 0.6 kg/m3 in data set [2] (318.15 K, x2 = 0).
